Reference: ChEMBL document CHEMBL1201862, “PubChem BioAssay data set” (2004)
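Cells were grown in 96-well plates and exposed to each compound for 48 hours at five concentrations; endpoints were interpolated linearly between bracketing concentrations, or set to the highest concentration if not reached. At the GI50, growth is halved.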 Calls of active or inactive are those of the source. No stated cut-off is given here; in the data, active = GI50 up to about 1.1 µM and inactive = higher.

How the values were obtained:
Assay in all cases: inhibition of tumour cell growth, NCI panel, 48 h
SK-MEL-28 = tested on: SK-MEL-28
UO-31 = tested on: UO-31
SW-620 = tested on: SW-620
SNB-75 = tested on: SNB-75
SR = tested on: SR
NCI-H522 = tested on: NCI-H522
SF-295 = tested on: SF-295
SK-OV-3 = tested on: SK-OV-3
NCI-H23 = tested on: NCI-H23
HCC 2998 = tested on: HCC 2998
MOLT-4 = tested on: MOLT-4
U-251 = tested on: U-251
NCI-H226 = tested on: NCI-H226
HT-29 = tested on: HT-29
CCRF-CEM = tested on: CCRF-CEM
OVCAR-4 = tested on: OVCAR-4
HCT-15 = tested on: HCT-15
K562 = tested on: K562
SF-539 = tested on: SF-539
CAKI-1 = tested on: CAKI-1

Compound	GI50 (SK-MEL-28)	GI50 (UO-31)	GI50 (SW-620)	GI50 (SNB-75)	GI50 (SR)	GI50 (NCI-H522)	GI50 (SF-295)	GI50 (SK-OV-3)	GI50 (NCI-H23)	GI50 (HCC 2998)	GI50 (MOLT-4)	GI50 (U-251)	GI50 (NCI-H226)	GI50 (HT-29)	GI50 (CCRF-CEM)	GI50 (OVCAR-4)	GI50 (HCT-15) [µM]	GI50 (K562)	GI50 (SF-539)	GI50 (CAKI-1)
O=C(O)CC(Cc1ccc2c(c1)OCO2)C(=O)O (centres undefined)	> 100 µM (inactive)	> 100 µM (inactive)	> 100 µM (inactive)	> 100 µM (inactive)	> 100 µM (inactive)	> 100 µM (inactive)	> 100 µM (inactive)	> 100 µM (inactive)	> 100 µM (inactive)	> 100 µM (inactive)	> 100 µM (inactive)	> 100 µM (inactive)	> 100 µM (inactive)	> 100 µM (inactive)	56.2 µM (inactive)	> 100 µM (inactive)	> 100	> 100 µM (inactive)	> 100 µM (inactive)	
O=C(/C=C/c1ccc2c(c1)OCO2)NCCc1ccco1	> 100 µM (inactive)	41 µM (inactive)	> 100 µM (inactive)	> 100 µM (inactive)	18.5 µM (inactive)	37.9 µM (inactive)	54.8 µM (inactive)	> 100 µM (inactive)	> 100 µM (inactive)	> 100 µM (inactive)	48.9 µM (inactive)	> 100 µM (inactive)	90.2 µM (inactive)	> 100 µM (inactive)	59.8 µM (inactive)	> 100 µM (inactive)		39.7 µM (inactive)	> 100 µM (inactive)	52.5 µM (inactive)
Fc1ccc(C(OCCN2CC3CC2CN3)c2ccc(F)cc2)cc1 (centres undefined)	21.8 µM (inactive)		> 100 µM (inactive)	66.4 µM (inactive)	27.5 µM (inactive)	47.3 µM (inactive)	83.2 µM (inactive)	> 100 µM (inactive)	> 100 µM (inactive)	16.4 µM (inactive)	43.1 µM (inactive)	48.5 µM (inactive)	59 µM (inactive)		35.3 µM (inactive)	> 100 µM (inactive)	60.5	36 µM (inactive)	29.6 µM (inactive)	> 100 µM (inactive)
CCOC(=O)c1c(N)sc2c1CC(C)CC2 (centres undefined)	53.5 µM (inactive)	32.3 µM (inactive)	55.6 µM (inactive)	26.5 µM (inactive)	28.6 µM (inactive)	18.4 µM (inactive)	45 µM (inactive)	47.6 µM (inactive)	63.7 µM (inactive)	19.7 µM (inactive)	30.9 µM (inactive)	42.4 µM (inactive)	23.5 µM (inactive)	22.4 µM (inactive)		34.1 µM (inactive)	41.8	39.4 µM (inactive)		49 µM (inactive)
NC(=O)c1ncn(C2OC(CO)C(O)C2O)c1NC(=S)NC(=O)c1ccccc1 (centres undefined)	> 100 µM (inactive)	> 100 µM (inactive)	> 100 µM (inactive)	> 100 µM (inactive)	> 100 µM (inactive)	> 100 µM (inactive)	> 100 µM (inactive)	> 100 µM (inactive)	> 100 µM (inactive)	> 100 µM (inactive)	> 100 µM (inactive)	> 100 µM (inactive)	> 100 µM (inactive)	> 100 µM (inactive)	> 100 µM (inactive)	> 100 µM (inactive)		> 100 µM (inactive)	> 100 µM (inactive)	> 100 µM (inactive)
O=C(/N=N/c1ccc(Br)cc1)NNc1ccc(Br)cc1	26.3 µM (inactive)	22.9 µM (inactive)		29.4 µM (inactive)	28.6 µM (inactive)	16.2 µM (inactive)	28.1 µM (inactive)	29 µM (inactive)	22.5 µM (inactive)	21.5 µM (inactive)	11.8 µM (inactive)	17.5 µM (inactive)	20.5 µM (inactive)	17.4 µM (inactive)	0.132 µM (active)		19.4	10.5 µM (inactive)		23.7 µM (inactive)
CS(=O)(=O)OCC(CCl)(CCl)CCl	> 100 µM (inactive)	> 100 µM (inactive)	> 100 µM (inactive)	> 100 µM (inactive)	> 100 µM (inactive)	> 100 µM (inactive)	> 100 µM (inactive)	> 100 µM (inactive)	> 100 µM (inactive)	> 100 µM (inactive)	> 100 µM (inactive)	> 100 µM (inactive)	> 100 µM (inactive)	> 100 µM (inactive)	> 100 µM (inactive)	> 100 µM (inactive)	> 100	> 100 µM (inactive)		
CCP(=O)(CC)C(Cl)(Cl)C(=O)NC	> 100 µM (inactive)	> 100 µM (inactive)	> 100 µM (inactive)	> 100 µM (inactive)	> 100 µM (inactive)	> 100 µM (inactive)	> 100 µM (inactive)	> 100 µM (inactive)	> 100 µM (inactive)	> 100 µM (inactive)	> 100 µM (inactive)	> 100 µM (inactive)	> 100 µM (inactive)	> 100 µM (inactive)	> 100 µM (inactive)	> 100 µM (inactive)	> 100	> 100 µM (inactive)		> 100 µM (inactive)
O=c1c(-c2ccccc2)c(SCCCN2CCN(c3cccc(Cl)c3)CC2)n(-c2ccccc2)c(=S)n1-c1ccccc1	> 100 µM (inactive)		> 100 µM (inactive)	> 100 µM (inactive)	29 µM (inactive)	> 100 µM (inactive)	> 100 µM (inactive)	> 100 µM (inactive)	> 100 µM (inactive)	> 100 µM (inactive)	> 100 µM (inactive)	> 100 µM (inactive)	> 100 µM (inactive)	80.9 µM (inactive)	> 100 µM (inactive)	23.3 µM (inactive)	> 100	> 100 µM (inactive)	> 100 µM (inactive)	25.6 µM (inactive)
CC(C)c1cc2c(c(O)c1O)[C@@]1(C)CCCC(C)(C)C1=C(O)C2	1.84 µM (inactive)	1.36 µM (inactive)	1.46 µM (inactive)	0.984 µM (active)	1.7 µM (inactive)	1.15 µM (inactive)	1.53 µM (inactive)		1.54 µM (inactive)	1.01 µM (active)	1.4 µM (inactive)	1.51 µM (inactive)	> 50 µM (inactive)	6.75 µM (inactive)	0.822 µM (active)	1.29 µM (inactive)	1.68	1.6 µM (inactive)	0.726 µM (active)	1.05 µM (active)
O=c1c(C(c2ccc3ccccc3c2)c2c(O)oc3cc(O)ccc3c2=O)c(O)oc2cc(O)ccc12	> 100 µM (inactive)	5.22 µM (inactive)	> 100 µM (inactive)	17.5 µM (inactive)	26.6 µM (inactive)	50.8 µM (inactive)	> 100 µM (inactive)	> 100 µM (inactive)	> 100 µM (inactive)	> 100 µM (inactive)	44.4 µM (inactive)	41.5 µM (inactive)	> 100 µM (inactive)	> 100 µM (inactive)	43.2 µM (inactive)		> 100	30.5 µM (inactive)	84.1 µM (inactive)	> 100 µM (inactive)
